Results taken from ChEMBL document CHEMBL4265964, “Discover the leading compound of 4β-S-(5-fluorobenzoxazole)-4-deoxy-4'-demethylepipodophyllotoxin with millimolar-potency toxicity by modifying the molecule structure of 4'-demethylepipodophyllotoxin” (Eur J Med Chem, 2018).
Active and inactive are the calls of the source. The rule behind the calls is not given here.

Assays:
MCF7 = experiment: Cytotoxicity against human MCF7 cells after 48 hrs by MTT assay; format: functional, cell-based; details: MCF7, 48 h
A549 = experiment: Cytotoxicity against human A549 cells after 48 hrs by MTT assay; format: functional, cell-based; details: A549, 48 h
HMEC = experiment: Cytotoxicity against HMEC after 48 hrs by MTT assay; format: cell-based; details: Homo sapiens
L02 [1] = experiment: Cytotoxicity against human HL7702 cells after 48 hrs by MTT assay; format: cell-based; details: L02, 48 h
[2] = Cytotoxicity against human H8 cells after 48 hrs by MTT assay; format: cell-based
HeLa = experiment: Cytotoxicity against human HeLa cells after 48 hrs by MTT assay; format: functional, cell-based
HepG2 [3] = experiment: Cytotoxicity against human HepG2 cells after 48 hrs by MTT assay; format: functional, cell-based; details: HepG2, 48 h
MRC5 = experiment: Cytotoxicity against human MRC5 cells after 48 hrs by MTT assay; format: cell-based; details: MRC5, 48 h
Homo sapiens [4] = species: Homo sapiens; experiment: Inhibition of human topoisomerase-2 assessed as reduction in relaxation of kinetoplast DNA at 100 uM after 30 mins by ethidium bromide staining based agarose gel electrophoresis method
Homo sapiens [5] = species: Homo sapiens; experiment: Inhibition of human topoisomerase-2 assessed as reduction in relaxation of kinetoplast DNA at 200 uM after 30 mins by ethidium bromide staining based agarose gel electrophoresis method
Homo sapiens [6] = species: Homo sapiens; experiment: Inhibition of human topoisomerase-2 assessed as reduction in relaxation of kinetoplast DNA at 50 uM after 30 mins by ethidium bromide staining based agarose gel electrophoresis method
HepG2 [7] = experiment: Cell cycle arrest in human HepG2 cells assessed as accumulation at G2/M phase at 1 uM after 42 hrs by propidium iodide staining based flow cytometry relative to control; format: functional
L02 [8] = experiment: Induction of apoptosis in human HL7702 cells assessed as early apoptotic cells at 100 uM after 42 hrs by Annexin V-FITC/propidium iodide staining based flow cytometry (reference value: 0.3%); format: cell-based; details: l02, 42 h
L02 [9] = experiment: Upregulation of PARK7 expression in human HL7702 cells at 50 uM after 12 hrs by proteomic analysis; format: functional, cell-based
L02 [10] = experiment: Cell cycle arrest in human HL7702 cells assessed as accumulation at G2/M phase at 5 to 10 uM after 42 hrs by propidium iodide staining based flow cytometry relative to control; details: l02, 42 h
[11] = Induction of apoptosis in human HL7702 cells assessed as live cells at 100 uM after 42 hrs by Annexin V-FITC/propidium iodide staining based flow cytometry (reference value: 98.5%); format: cell-based; details: HL7702 (L02) cells, read-out: Activity
L02 [12] = experiment: Upregulation of Akt expression in human HL7702 cells at 50 uM after 12 hrs by proteomic analysis relative to control; format: functional, cell-based
HepG2 [13] = experiment: Cell cycle arrest in human HepG2 cells assessed as accumulation at G2/M phase at 5 to 10 uM after 42 hrs by propidium iodide staining based flow cytometry; format: functional
HepG2 [14] = experiment: Induction of apoptosis in human HepG2 cells assessed as early apoptotic cells at 10 uM after 42 hrs by Annexin V-FITC/propidium iodide staining based flow cytometry (reference value: 0.5%); format: functional
L02 [15] = experiment: Upregulation of HMGB1 expression in human HL7702 cells at 50 uM after 12 hrs by proteomic analysis; format: functional, cell-based
HepG2 [16] = experiment: Induction of apoptosis in human HepG2 cells assessed as live cells at 10 uM after 42 hrs by Annexin V-FITC/propidium iodide staining based flow cytometry (reference value: 98.2%); format: functional
L02 [17] = experiment: Induction of apoptosis in human HL7702 cells assessed as necrotic cells at 100 uM after 42 hrs by Annexin V-FITC/propidium iodide staining based flow cytometry (reference value: 0.2%); format: cell-based; details: l02, 42 h
L02 [18] = experiment: Induction of apoptosis in human HL7702 cells assessed as late apoptotic cells at 100 uM after 42 hrs by Annexin V-FITC/propidium iodide staining based flow cytometry (reference value: 1%); format: cell-based; details: l02, 42 h
L02 [19] = experiment: Induction of DNA damage in human HL7702 cells assessed as gammaH2AX accumulation at 50 uM after 12 hrs by DAPI staining based immuno-fluorescence assay; format: cell-based; details: l02, 12 h
L02 [20] = experiment: Upregulation of COX5A expression in human HL7702 cells at 50 uM after 12 hrs by proteomic analysis relative to control; format: functional, cell-based
L02 [21] = experiment: Upregulation of SRSF3 expression in human HL7702 cells at 50 uM after 12 hrs by proteomic analysis relative to control; format: functional, cell-based
HepG2 [22] = experiment: Induction of apoptosis in human HepG2 cells assessed as late apoptotic cells at 10 uM after 42 hrs by Annexin V-FITC/propidium iodide staining based flow cytometry (reference value: 0.9%); format: functional
HepG2 [23] = experiment: Induction of apoptosis in human HepG2 cells assessed as necrotic cells at 10 uM after 42 hrs by Annexin V-FITC/propidium iodide staining based flow cytometry (reference value: 0.3%); format: functional

Row | SMILES | IC50 (MCF7) [µM] | IC50 (A549) [µM] | IC50 (HMEC) [µM] | IC50 (L02 [1]) [µM] | IC50 [2] [µM] | IC50 (HeLa) [µM] | IC50 (HepG2 [3]) [µM] | IC50 (MRC5) [µM] | further results
1 | COc1cc([C@@H]2c3cc4c(cc3[C@@H](c3nc5cc(-c6ccccc6)ccc5o3)[C@H]3COC(=O)[C@H]23)OCO4)cc(OC)c1O | > 100 | > 100 | 83.4 | 21.7 | > 100 | > 100 | > 100 | 76.3 | –
2 | COc1cc([C@@H]2c3cc4c(cc3[C@@H](c3nc5cc(C(F)(F)F)ccc5s3)[C@H]3COC(=O)[C@H]23)OCO4)cc(OC)c1O | 34.5 | 6.5 | 42.3 | 79.5 | 81 | 21.1 | 19.5 | 73.3 | –
3 | COc1cc([C@@H]2c3cc4c(cc3[C@@H](c3nc5cnccc5[nH]3)[C@H]3COC(=O)[C@H]23)OCO4)cc(OC)c1O | > 100 | > 100 | > 100 | 59.8 | > 100 | > 100 | > 100 | 63.4 | –
4 | COc1cc([C@@H]2c3cc4c(cc3[C@@H](c3nc5cc(C)ccc5o3)[C@H]3COC(=O)[C@H]23)OCO4)cc(OC)c1O | 14.4 | 8 | 12.6 | 31.5 | 19.5 | 15.4 | 15.4 | 39 | –
5 | COc1cc([C@@H]2c3cc4c(cc3[C@@H](c3nc5cc(OC(F)F)ccc5[nH]3)[C@H]3COC(=O)[C@H]23)OCO4)cc(OC)c1O | 2.4 | 1.3 | 51.4 | 15.6 | 55.4 | 2.1 | 1.6 | 60.2 | –
6 | COc1cc([C@@H]2c3cc4c(cc3[C@@H](C3CC(c5ccncc5)=CN3)[C@H]3COC(=O)[C@H]23)OCO4)cc(OC)c1O (some centres not stated) | 4.3 | 2 | 38.1 | 22.8 | 23.6 | 5.7 | 10 | 19 | –
7 | COc1cc([C@@H]2c3cc4c(cc3[C@@H](c3nc5cnc(F)cc5[nH]3)[C@H]3COC(=O)[C@H]23)OCO4)cc(OC)c1O | 16.4 | 24.5 | > 100 | 29.8 | 34 | 11.9 | 22.5 | 41.3 | inhibition (Homo sapiens [4]): inactive; inhibition (Homo sapiens [5]): Active; inhibition (Homo sapiens [6]): inactive
8 | COc1cc([C@@H]2c3cc4c(cc3[C@@H](C3CC(S)NN3c3ccccc3F)[C@H]3COC(=O)[C@H]23)OCO4)cc(OC)c1O (some centres not stated) | 1.5 | 2.8 | 58.2 | 73 | 64.2 | 3.8 | 4.5 | 89.2 | –
9 | COc1cc([C@@H]2c3cc4c(cc3[C@@H](C3CC(c5ccncc5F)=CN3)[C@H]3COC(=O)[C@H]23)OCO4)cc(OC)c1O (some centres not stated) | 2.5 | 1.4 | 31.5 | 19.8 | 19.2 | 1.9 | 2.8 | 28.1 | –
10 | COc1cc([C@@H]2c3cc4c(cc3[C@@H](O)[C@H]3COC(=O)[C@H]23)OCO4)cc(OC)c1O [4'-DEMETHYLEPIPODOPHYLLOTOXIN] | 30.1 | 19 | 19.6 | 19.4 | 25.1 | 27.8 | 26.1 | 21.3 | –
11 | COc1cc([C@@H]2c3cc4c(cc3[C@@H](c3nc5cc(-c6ccccc6)ccc5s3)[C@H]3COC(=O)[C@H]23)OCO4)cc(OC)c1O | > 100 | 5.7 | 54.1 | 18.6 | 47.6 | 22.5 | 15.3 | 35.6 | –
12 | COc1cc([C@@H]2c3cc4c(cc3[C@@H](c3nc5ccccc5s3)[C@H]3COC(=O)[C@H]23)OCO4)cc(OC)c1O | 11.5 | 2.6 | 28.6 | 22.7 | 19.4 | 5.1 | 6.7 | 136 | –
13 | COc1cc([C@@H]2c3cc4c(cc3[C@@H](O[C@@H]3O[C@@H]5CO[C@@H](C)O[C@H]5[C@H](O)[C@H]3O)[C@H]3COC(=O)[C@H]23)OCO4)cc(OC)c1O [ETOPOSIDE] | 53.8 | 22.5 | 21.5 | 24.6 | 75.4 | 21.4 | 20 | 33.5 | Activity (HepG2 [7]): 33%; Activity (L02 [8]): 37%; Activity (L02 [9]): inactive; Activity (L02 [10]): 64%; inhibition (Homo sapiens [4]): Active; viability at 42 h, 100 µM [11]: 28%; Activity (L02 [12]): inactive; Activity (HepG2 [13]): Active; Activity (HepG2 [14]): 7%; Activity (L02 [15]): inactive; Activity (HepG2 [16]): 76.6%; Activity (L02 [17]): 2.2%; Activity (L02 [18]): 32.8%; Activity (L02 [19]): Toxic; inhibition (Homo sapiens [5]): Active; Activity (L02 [20]): inactive; Activity (L02 [21]): inactive; Activity (HepG2 [22]): 11%; Activity (HepG2 [23]): 5.4%; inhibition (Homo sapiens [6]): inactive
14 | COc1cc([C@@H]2c3cc4c(cc3[C@@H](c3nc5c(F)c(F)c(F)c(F)c5s3)[C@H]3COC(=O)[C@H]23)OCO4)cc(OC)c1O | 5.5 | 4.2 | 18.2 | 35.6 | 24.7 | 2.3 | 14.5 | 41.4 | –
15 | COc1cc([C@@H]2c3cc4c(cc3[C@@H](c3nc5cc(C)ccc5s3)[C@H]3COC(=O)[C@H]23)OCO4)cc(OC)c1O | 5.4 | 3 | 15.6 | 24.2 | 27.5 | 5.1 | 8.2 | 47 | –
16 | COc1cc([C@@H]2c3cc4c(cc3[C@@H](c3nc5cc(C(F)(F)F)ccc5o3)[C@H]3COC(=O)[C@H]23)OCO4)cc(OC)c1O | 34.5 | 6.5 | 72.8 | 79.5 | 81 | 21.1 | 19.5 | 73.3 | –
17 | COc1cc([C@@H]2c3cc4c(cc3[C@@H](c3nc5ccccc5o3)[C@H]3COC(=O)[C@H]23)OCO4)cc(OC)c1O | 21.4 | 25.6 | 15.6 | 17.7 | 20.4 | 16.4 | 19.4 | 32.3 | –
18 | COc1cc([C@@H]2c3cc4c(cc3[C@@H](c3nc5c(F)c(F)c(F)c(F)c5o3)[C@H]3COC(=O)[C@H]23)OCO4)cc(OC)c1O | 3.5 | 1.7 | 75.5 | 75.1 | 44.6 | 4.3 | 6.8 | 65.4 | –
